Laboratory results taken from ChEMBL document CHEMBL1201862, “PubChem BioAssay data set” (2004).
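Exposure lasted 48 hours, with cells grown in 96-well plates and compounds tested at five concentrations. Here, GI50 denotes the concentration required for 50% inhibition of growth.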 Active and inactive are the calls of the source. Rule as the data show it: active = GI50 up to about 1.1 µM and inactive = higher.

Key:
Assay in all cases: NCI anticancer screen, dose series, 48 h
[1] = system: SK-MEL-28
[2] = system: A498
[3] = system: SF-539
[4] = system: KM-20L2
[5] = system: 786-0
[6] = system: SW-620
[7] = system: RXF 393
[8] = system: U-251
[9] = system: SNB-19
[10] = system: NCI-H460
[11] = system: ACHN
[12] = system: M14
[13] = system: RPMI-8226
[14] = system: Malme-3M
[15] = system: KM12
[16] = system: SR
[17] = system: NCI-H226

Row | Structure (SMILES) | GI50 [1] | GI50 [2] | GI50 [3] | GI50 [4] | GI50 [5] | GI50 [6] | GI50 [7] | GI50 [8] | GI50 [9] | GI50 [10] | GI50 [11] | GI50 [12] | GI50 [13] | GI50 [14] | GI50 [15] | GI50 [16] | GI50 [17]
1 | N=C(N)NS(=O)(=O)c1ccc(NC(=O)c2cccc3c(Nc4ccc(S(=O)(=O)N=C(N)N)cc4)c4ccc(Cl)cc4nc23)cc1 | 75 µM (inactive) | > 100 µM (inactive) | > 100 µM (inactive) | 74.8 µM (inactive) | > 100 µM (inactive) | 62.4 µM (inactive) | > 100 µM (inactive) | 37.2 µM (inactive) | 48.4 µM (inactive) | 76.2 µM (inactive) | 49.7 µM (inactive) | 70.1 µM (inactive) | 43.9 µM (inactive) | 64.4 µM (inactive) | > 100 µM (inactive) |  | 
2 | CCCCCCn1c(SCC)c2ccccc2c1-c1nc(F)nc(F)n1 | > 100 µM (inactive) |  | > 100 µM (inactive) | > 100 µM (inactive) | > 100 µM (inactive) | > 100 µM (inactive) | > 100 µM (inactive) | > 100 µM (inactive) | > 100 µM (inactive) | > 100 µM (inactive) | > 100 µM (inactive) | > 100 µM (inactive) | > 100 µM (inactive) | > 100 µM (inactive) | > 100 µM (inactive) | 88.7 µM (inactive) | > 100 µM (inactive)
3 | O=C1/C(=C/c2ccccc2)CN(C(=O)Oc2ccc([N+](=O)[O-])cc2)C/C1=C\c1ccccc1 | 3.48 µM (inactive) | > 10 µM (inactive) | 9.42 µM (inactive) | 4.69 µM (inactive) | 4.49 µM (inactive) | 0.59 µM (active) | 6.84 µM (inactive) | 1.77 µM (inactive) | 6.65 µM (inactive) | 6.03 µM (inactive) | 6.65 µM (inactive) | 0.908 µM (active) | 0.0551 µM (active) | > 10 µM (inactive) | 0.661 µM (active) | 2.1 µM (inactive) | > 10 µM (inactive)
4 | Cc1cc(CC(O)c2ccc(Cl)c(Cl)c2)nc(O)n1 (configuration not stated) | > 100 µM (inactive) | 53.8 µM (inactive) |  | 51.1 µM (inactive) | 17.6 µM (inactive) | 36.1 µM (inactive) |  | 29.1 µM (inactive) | 30.5 µM (inactive) | 34.8 µM (inactive) | 31.3 µM (inactive) | 32.8 µM (inactive) | 71.9 µM (inactive) | 81.8 µM (inactive) | 36.4 µM (inactive) | 24.7 µM (inactive) | 26.9 µM (inactive)
5 | COC(OC)[C@@H](C)[C@H](O)[C@](C)(O)C1OC(C)(C)OC(C(C)C=C(C)C)C1C (some centres not stated) | > 100 µM (inactive) | > 100 µM (inactive) | > 100 µM (inactive) | > 100 µM (inactive) | > 100 µM (inactive) | > 100 µM (inactive) | 66.4 µM (inactive) | > 100 µM (inactive) | > 100 µM (inactive) | > 100 µM (inactive) | > 100 µM (inactive) | > 100 µM (inactive) | 48.6 µM (inactive) | > 100 µM (inactive) | > 100 µM (inactive) | 73.3 µM (inactive) | > 100 µM (inactive)
6 | Cc1ccc(Nc2nc(-c3ccc(-c4ccc([N+](=O)[O-])cc4)o3)cs2)cc1 | 38 µM (inactive) |  | 93.8 µM (inactive) | 29.6 µM (inactive) | 68.5 µM (inactive) | 95.3 µM (inactive) |  | 35 µM (inactive) | > 100 µM (inactive) | 44 µM (inactive) | 34 µM (inactive) | > 100 µM (inactive) | 12.6 µM (inactive) | 65.2 µM (inactive) | 52.8 µM (inactive) | 11.4 µM (inactive) | 48.3 µM (inactive)
7 | CC(Cn1c2c3ccccc3ccc2c2oc(=O)c3ccccc3c21)N(C)C (configuration not stated) | > 100 µM (inactive) |  | > 100 µM (inactive) | > 100 µM (inactive) | > 100 µM (inactive) | > 100 µM (inactive) |  | > 100 µM (inactive) | > 100 µM (inactive) | > 100 µM (inactive) | > 100 µM (inactive) | > 100 µM (inactive) | > 100 µM (inactive) | > 100 µM (inactive) | > 100 µM (inactive) | > 100 µM (inactive) | 
8 | COc1cccc(C2c3cc4c(cc3OC(O)(CO)C2C(=O)O)OCO4)c1.COc1cccc(C2c3cc4c(cc3OC3(O)COC(=O)C23)OCO4)c1 (configuration not stated) | 26.9 µM (inactive) | 47.4 µM (inactive) | > 100 µM (inactive) | > 100 µM (inactive) | > 100 µM (inactive) | 82.2 µM (inactive) | 33.5 µM (inactive) | 22.2 µM (inactive) |  | 21.2 µM (inactive) | 49.5 µM (inactive) | 48.8 µM (inactive) | 53 µM (inactive) | > 100 µM (inactive) | 35.7 µM (inactive) | 38.8 µM (inactive) | 50 µM (inactive)
9 | [O-]c1c2cc(-[n+]3c(-c4ccccc4)cc(-c4ccccc4)cc3-c3ccccc3)cc1COCCOCCOCCOCCOC2 | 18 µM (inactive) |  | 33 µM (inactive) | 31.3 µM (inactive) | 54.5 µM (inactive) | 48.9 µM (inactive) |  | 38.8 µM (inactive) | 73.5 µM (inactive) |  | > 100 µM (inactive) | 37.4 µM (inactive) |  | 34.2 µM (inactive) | 20.4 µM (inactive) | 26.2 µM (inactive) | > 100 µM (inactive)
10 | COc1ccccc1NC(=O)C(CC(C(=O)Nc1ccccc1OC)/C(C)=N/NC(=O)c1ccccc1O)/C(C)=N/NC(=O)c1ccccc1O (configuration not stated) | > 100 µM (inactive) | 65 µM (inactive) | 54.2 µM (inactive) | > 100 µM (inactive) | > 100 µM (inactive) | 88.5 µM (inactive) | 38.8 µM (inactive) | 59 µM (inactive) | 61.7 µM (inactive) | 57.9 µM (inactive) | 98.6 µM (inactive) | > 100 µM (inactive) | 59.8 µM (inactive) | > 100 µM (inactive) | > 100 µM (inactive) |  | 60.3 µM (inactive)
11 | Cc1cc(N(CCC#N)CCC#N)ccc1/C=C/C(=O)Nc1cccc(Cl)c1 | > 100 µM (inactive) | > 100 µM (inactive) | > 100 µM (inactive) | 87.1 µM (inactive) | > 100 µM (inactive) | > 100 µM (inactive) |  | > 100 µM (inactive) | > 100 µM (inactive) | > 100 µM (inactive) | 57.3 µM (inactive) | > 100 µM (inactive) | > 100 µM (inactive) | > 100 µM (inactive) | > 100 µM (inactive) |  | > 100 µM (inactive)
12 | COC(=O)C(c1ccc(OC)cc1)N1C(=O)[C@@H](NC(=O)c2ccccc2)[C@H]1[C@@H](C)O (some centres not stated) | > 100 µM (inactive) |  | > 100 µM (inactive) | > 100 µM (inactive) | > 100 µM (inactive) | > 100 µM (inactive) | > 100 µM (inactive) | > 100 µM (inactive) | > 100 µM (inactive) | > 100 µM (inactive) | > 100 µM (inactive) | > 100 µM (inactive) |  | > 100 µM (inactive) | > 100 µM (inactive) | > 100 µM (inactive) | > 100 µM (inactive)
13 | CCCCCCCCCCCCCCCCP(=O)(OC)OC | 17.7 µM (inactive) |  | 20.6 µM (inactive) | 22.4 µM (inactive) | 17.6 µM (inactive) | 14.7 µM (inactive) | 19 µM (inactive) | 17.9 µM (inactive) | 15.2 µM (inactive) | 17.3 µM (inactive) | 14.8 µM (inactive) | 16.3 µM (inactive) | 13.2 µM (inactive) | 18.2 µM (inactive) | 17.9 µM (inactive) | 19.1 µM (inactive) | 17.1 µM (inactive)
14 | Nc1ncnc2c1ncn2CCCC(c1ccccc1)P(=O)(O)O (configuration not stated) | > 100 µM (inactive) | 63 µM (inactive) | > 100 µM (inactive) | > 100 µM (inactive) | > 100 µM (inactive) | > 100 µM (inactive) | > 100 µM (inactive) | > 100 µM (inactive) | > 100 µM (inactive) | > 100 µM (inactive) | > 100 µM (inactive) |  |  | > 100 µM (inactive) | > 100 µM (inactive) | > 100 µM (inactive) | > 100 µM (inactive)
15 | O=C1C(Br)=CC2(C=C1Br)CCNC1=C2C(=O)c2ccccc2C1=O | > 10 µM (inactive) |  |  | 7.41 µM (inactive) | 11.9 µM (inactive) | 9.98 µM (inactive) | 3.84 µM (inactive) |  |  |  | 14.1 µM (inactive) | 18.4 µM (inactive) | 4.75 µM (inactive) | 18.1 µM (inactive) | 8.22 µM (inactive) | 2.95 µM (inactive) | 
16 | CN(C)CCCN1N=Nc2cccc3cccc1c23 | > 100 µM (inactive) | 78.7 µM (inactive) | > 60.7 µM (inactive) | 54.3 µM (inactive) | 17.9 µM (inactive) | 24.3 µM (inactive) |  | > 74.3 µM (inactive) | > 100 µM (inactive) | 33.1 µM (inactive) | 56.1 µM (inactive) | > 43.4 µM (inactive) | > 51.1 µM (inactive) | > 100 µM (inactive) | > 79.3 µM (inactive) | 26.5 µM (inactive) | > 100 µM (inactive)
17 | C/C(CC(=O)Nc1cc(C)ccc1C)=N/N=C(N)N | > 100 µM (inactive) | > 100 µM (inactive) | > 100 µM (inactive) | > 100 µM (inactive) | > 100 µM (inactive) | > 100 µM (inactive) | > 100 µM (inactive) | > 100 µM (inactive) |  | > 100 µM (inactive) | > 100 µM (inactive) | > 100 µM (inactive) | > 100 µM (inactive) | > 100 µM (inactive) | > 100 µM (inactive) |  | > 100 µM (inactive)
18 | Cc1nc(NC(=S)NC(=O)c2ccc(Cl)c(Cl)c2)sc1C(=O)/C=C/c1ccccc1[N+](=O)[O-] | 25.4 µM (inactive) |  | 19 µM (inactive) | 18.6 µM (inactive) | 17.8 µM (inactive) | 20.2 µM (inactive) | 19.4 µM (inactive) | 17.9 µM (inactive) | 21.1 µM (inactive) | 28.9 µM (inactive) | 24.4 µM (inactive) | 23.8 µM (inactive) | 24.2 µM (inactive) | 18.5 µM (inactive) | 18.7 µM (inactive) | 24.5 µM (inactive) | 
